≈ marks a conversion by molar mass, not a printed value.
How the values were obtained:
TNF-α = experiment: MRSA wound infection model: serum cytokine ELISA; assay type: in vivo, mice; settings: three days after treatment (method: 24 h), p < 0.05
Procedure: (§1) Six weeks SPF-ICR female mice were used for this study. The Experimental model, inducted of inflammatory in mice by skin excision, was established referring to existing methods with some alterations. The mice were anesthetized with the intravenous injection of 1% sodium pentobarbital. After their hair on the back was shaved, the mice were anesthetized and the back skin was perforated with a biopsy perforator at a depth of fascia injury. The inoculum (50 μL), containing 10^9 CFU/mL of the indicated microorganism (MRSA ATCC 43300), was applied on the wound for three times at 30 min intervals. 100 μL drug (3 mg/mL) was administrated on the wound at 1 h after inoculation for three consecutive days. A total of 100 μL blank matrix was given to the infected control group and the non-infected group in the same way. The wound was wrapped with sterile gauze. During the treatment, all mice were kept individually and free to eat and drink.
(§2) After administration for 24 h, blood samples were collected from the ocular venous plexus and were prepared to serum samples as previously described. The contents of IL-6, TNF-α, and MCP-1 in serum were detected using ELISA kits according to the instruction. All ELISA kits were purchased from Shanghai Enzyme-linked Biotechnology Co., Ltd. (Shanghai, China).

MCP-1 = experiment: MRSA wound infection model: serum cytokine ELISA; assay type: in vivo, mice; settings: three days after treatment (method: 24 h), p < 0.05
Procedure: as §1, §2

IL-6 = experiment: MRSA wound infection model: serum cytokine ELISA; assay type: in vivo, mice; settings: three days after treatment (method: 24 h), p < 0.05
Procedure: as §1, §2

MRSA = experiment: MIC against MRSA (summary over strains); assay type: cell-based; settings: Staphylococcus aureus, range over strains, read-out: minimal inhibitory concentration
Procedure: The MIC of amphenmulin against MRSA, Escherichia coli, Salmonella typhimurium, Enterococcus faecalis, and Enterococcus faecium were determined using tiamulin as controls. MIC values were measured by the method of previous work. Staphylococcus aureus ATCC 29213 was used as the quality control bacteria, and the quality control range was referred to the Clinical and Laboratory Standards Institute (CLSI). The bacteria solution was diluted to ~10^6 CFU/mL with Mueller–Hinton (MH) broth for MRSA, Escherichia coli and Salmonella typhimurium while Trypticase Soy Broth for Enterococcus faecalis and Enterococcus faecium. Drugs were dissolved in an aqueous solution of N, N-dimethylformamide (DMF) at a concentration of 2560 µg/mL, and then diluted with broth to prepare working solution (1280 µg/mL). The drug susceptibility testing was performed in 96-well plate. A total of 20 µL of working solution was added into column 1 and well mixed as a 10-fold dilution, following which Serial 2-fold dilutions were prepared to provide concentration ranges of 128–0.0078 µg/mL. Blank broth (no cultures) and bacteria solution (drugs replaced by blank solvent) were set as drug-free controls. Each 96-well plate was cultured at 37 °C for 24 h. The MIC value is the lowest concentration of amphenmulin which inhibits the visible growth of bacteria. The experiment was repeated three times.

MRSA ATCC 43300 [1] = experiment: MRSA wound infection model: wound size; assay type: in vivo, mice; settings: after treatment for three days; 100 μL drug (3 mg/mL) on the wound
Procedure: as §1
The wounds were examined on day 1 and days 3 after treatment. The area of wound were measured according to previous reports with some modifications. In each group, six mice were taken out and anesthetized to take photos and measure the size of the wound as the results.

KM mice = experiment: Acute oral toxicity study; settings: mouse, in vivo, 5000 mg/kg
Procedure: (§3) The acute toxicity test mainly referred to the previous reports with some modifications. Seven male and seven female KM mice in SPF grade were used for this study. Amphenmulin was formulated in DMSO and given in a single- dose at 5000 mg/kg by gavage, while the control group were given DMSO without drug. […] The median lethal dose (LD50) was calculated by modified Karber method on day 15. The experiment was repeated twice.

[2] = Acute oral toxicity study; settings: both sexes, KM, mouse, in vivo, 5000 mg/kg; mice, oral (gavage), single dose
Procedure: as §3

MRSA ATCC 43300 [3] = experiment: Constant concentration time-kill curves; assay type: cell-based, Staphylococcus aureus
Procedure: Time–kill curve experiments were performed in triplicate according previous report. In this experiment, MRSA, in logarithmic phase, was diluted to 10^6 CFU/mL with MH broth. […] The mixtures and control which was free of drug were cultured at 37 °C with shaking. A total of 20 µL aliquots from solutions were serially diluted 10-fold in 0.9% saline, at different time intervals (0, 3, 6, 9, and 24 h). Then the dilutions were plated onto MH agar medium and incubated at 37 °C for 18–24 h. The bacterial colonies were counted, and results were represented as the logarithm of the colony numbers. The time-kill curve was constructed by plotting log CFU/mL versus time.

MRSA ATCC 43300 [4] = experiment: MRSA wound infection model: wound bacterial burden; assay type: in vivo, mice
Procedure: as §1
At the end of the examination, mice were anesthetized and killed. Tissue samples, reaching to the muscle membrane, were removed from the middle of the wound surface and homogenized in 0.9% saline. Serially diluted aliquots of homogenate were cultured on high-salt mannitol agar plate at 37 °C for 24 h. The log of the colony number was used for statistical analysis.

Which “TNF-α in the serum vs infection group” value (TNF-α) does the source give for `C=C[C@]1(C)C[C@@H](OC(=O)CSc2ccccc2N)[C@]2(C)[C@H](C)CC[C@]3(CCC(=O)[C@H]32)[C@@H](C)[C@@H]1O` [Amphenmulin, 22-(2-amino-phenylsulfanyl)-22-deoxypleuromutilin] here?
Its value is “significantly decreased”.

And the “MCP-1 in the serum vs infection group” value (MCP-1)?
Its value is “significantly decreased”.

And the “IL-6 in the serum vs infection group” value (IL-6)?
The value was “significantly decreased”.

And the MIC (MRSA)?
Its MIC is 0.0156 to 8 µg/mL (≈ 0.0321 to 16.5 µM).

And the wound area (MRSA ATCC 43300 [1])?
The wound area was 0.47 ± 0.09 cm^2.

And the mortality (KM mice)?
Its mortality is “No mice died”.

And the abnormal symptoms (KM mice; po)?
The abnormal symptoms was “increase in the heart rate, excitement of some mice and inappetence”.

And the LD50 at 14 days [2]?
Its LD50 at 14 days is over 5000 mg/kg.

And the “colony numbers of MRSA” value (MRSA ATCC 43300 [3]; 0.5×MIC, 3 h)?
Its value is 7.17±0.08 log CFU/mL.

What about the “colony numbers of MRSA” value (MRSA ATCC 43300 [3]; 0.5×MIC, 6 h) of the same molecule?
The value was 7.83±0.16 log CFU/mL.

And the “colony numbers of MRSA” value (MRSA ATCC 43300 [3]; 0.5×MIC, 9 h)?
The value was 8.22±0.15 log CFU/mL.

And the “colony numbers of MRSA” value (MRSA ATCC 43300 [3]; 0.5×MIC, 24 h)?
Its value is 8.33±0.10 log CFU/mL.

What about the “colony numbers of MRSA” value (MRSA ATCC 43300 [3]; 1×MIC, 3 h) of the same molecule?
Its value is 6.84±0.08 log CFU/mL.

What about the “colony numbers of MRSA” value (MRSA ATCC 43300 [3]; 1×MIC, 6 h) of the same molecule?
The value was 7.44±0.06 log CFU/mL.

And the “colony numbers of MRSA” value (MRSA ATCC 43300 [3]; 1×MIC, 9 h)?
The value was 7.86±0.13 log CFU/mL.

What about the “colony numbers of MRSA” value (MRSA ATCC 43300 [3]; 1×MIC, 24 h) of the same molecule?
Its value is 7.70±0.46 log CFU/mL.

What about the “colony numbers of MRSA” value (MRSA ATCC 43300 [3]; 2×MIC, 3 h) of the same molecule?
The value was 6.43±0.13 log CFU/mL.

What about the “colony numbers of MRSA” value (MRSA ATCC 43300 [3]; 2×MIC, 6 h) of the same molecule?
The value was 6.56±0.23 log CFU/mL.

What about the “colony numbers of MRSA” value (MRSA ATCC 43300 [3]; 2×MIC, 9 h) of the same molecule?
The value was 7.07±0.42 log CFU/mL.

What about the “colony numbers of MRSA” value (MRSA ATCC 43300 [3]; 2×MIC, 24 h) of the same molecule?
The value was 7.26±0.62 log CFU/mL.

What about the “colony numbers of MRSA” value (MRSA ATCC 43300 [3]; 4×MIC, 3 h) of the same molecule?
The value was 5.96±0.66 log CFU/mL.

What about the “colony numbers of MRSA” value (MRSA ATCC 43300 [3]; 4×MIC, 6 h) of the same molecule?
Its value is 6.13±0.06 log CFU/mL.

And the “colony numbers of MRSA” value (MRSA ATCC 43300 [3]; 4×MIC, 9 h)?
Its value is 5.77±0.15 log CFU/mL.

And the “colony numbers of MRSA” value (MRSA ATCC 43300 [3]; 4×MIC, 24 h)?
The value was 4.04±0.58 log CFU/mL.

And the “colony numbers of MRSA” value (MRSA ATCC 43300 [3]; 8×MIC, 3 h)?
Its value is 5.91±0.03 log CFU/mL.

What about the “colony numbers of MRSA” value (MRSA ATCC 43300 [3]; 8×MIC, 6 h) of the same molecule?
The value was 5.98±0.09 log CFU/mL.

And the “colony numbers of MRSA” value (MRSA ATCC 43300 [3]; 8×MIC, 9 h)?
Its value is 5.78±0.09 log CFU/mL.

What about the “colony numbers of MRSA” value (MRSA ATCC 43300 [3]; 8×MIC, 24 h) of the same molecule?
The value was 3.55±0.16 log CFU/mL.

And the “colony numbers of MRSA” value (MRSA ATCC 43300 [3]; 16×MIC, 3 h)?
Its value is 5.79±0.12 log CFU/mL.

What about the “colony numbers of MRSA” value (MRSA ATCC 43300 [3]; 16×MIC, 6 h) of the same molecule?
Its value is 5.77±0.15 log CFU/mL.

And the “colony numbers of MRSA” value (MRSA ATCC 43300 [3]; 16×MIC, 9 h)?
The value was 5.64±0.11 log CFU/mL.

What about the “colony numbers of MRSA” value (MRSA ATCC 43300 [3]; 16×MIC, 24 h) of the same molecule?
The value was 2.97±0.06 log CFU/mL.

And the “colony numbers of MRSA” value (MRSA ATCC 43300 [3]; 32×MIC, 3 h)?
The value was 5.60±0.18 log CFU/mL.

And the “colony numbers of MRSA” value (MRSA ATCC 43300 [3]; 32×MIC, 6 h)?
The value was 5.91±0.56 log CFU/mL.

And the “colony numbers of MRSA” value (MRSA ATCC 43300 [3]; 32×MIC, 9 h)?
The value was 5.11±0.36 log CFU/mL.

And the “colony numbers of MRSA” value (MRSA ATCC 43300 [3]; 32×MIC, 24 h)?
Its value is 2.43±0.67 log CFU/mL.

What about the “type of antibacterial activity in time-kill curve” value (MRSA ATCC 43300 [3]; at the concentration of 4× MIC) of the same molecule?
Its value is “bacteriostatic activity”.

What about the “number of bacteria in wound tissue vs infected group” value (MRSA ATCC 43300 [4]; one day after treatment, p < 0.05) of the same molecule?
Its value is “significant decrease”.

And the “number of bacteria in wound tissue” value (MRSA ATCC 43300 [4]; three days after treatment, 100 μL drug (3 mg/mL) on the wound)?
Its value is 4.47 ± 0.66 log10 CFU/mL.
